This is an account of results in patent publication US7579371B2, “Methods of using [3.2.0] heterocyclic compounds and analogs thereof” (Nereus Pharmaceuticals, Inc., priority 2004, dated 2009).

Data set [1] addresses rabbit muscle 20S proteasome, trypsin-like activity (Oryctolagus cuniculus, UniProt G1SWK8). Description: Trypsin-like activity of purified rabbit 20S proteasome (Boc-LRR-AMC).
Another data set relates to HL-60/MX2. In words: Cell growth inhibition assay (resazurin, 48 h). Particulars: HL-60/MX2, 48 h. The protocol:
The DNA binding agent Mitoxantrone was included as a control, as HL-60/MX2 cells are reported to be resistant to this chemotherapeutic agent (Harker W. G. et al. 1989).
(§1) Concentrations ranging from 6.32 μM to 2 nM were tested for II-2 and II-4.
HL-60/MX2 is a multidrug resistant tumor cell line derived from the human promyelocytic leukemia cell line, HL-60 and expresses reduced topoisomerase II activity. […] Mitoxantrone, the topoisomerase II targeting agent was included as a control.
In general terms: The colour change of resazurin is a common sign of viable cells or microbes.

The test system of data set [2] is RAW264.7 cells. Description: cells. Particulars: Mus musculus, RAW264.7, read-out: viability, compound + LeTx.
Data set [3] addresses T1, 20S proteasome chymotrypsin-like activity in PC-3 cells (Homo sapiens, UniProt P28074).
T1 construct: PC-3 (ATCC, CRL-1435), the human prostate cancer cell line; host or cells: PC-3
T1 sequence (P28074 60-263): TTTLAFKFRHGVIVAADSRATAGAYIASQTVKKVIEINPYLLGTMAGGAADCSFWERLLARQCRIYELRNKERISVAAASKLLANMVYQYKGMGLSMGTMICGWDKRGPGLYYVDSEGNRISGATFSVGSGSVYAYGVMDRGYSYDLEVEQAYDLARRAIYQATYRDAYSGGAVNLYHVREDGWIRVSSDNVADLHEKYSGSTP
In words: Chymotrypsin-like activity of 20S proteasomes in treated PC-3 cells. It is filed as cell-based. Particulars: 1 hr. The procedure: PC-3 (ATCC, CRL-1435), the human prostate cancer cell line, was cultured in F12K medium supplemented with 2 mM L-glutamine, 100 units/ml penicillin, 100 μg/ml streptomycin and 10% heat inactivated fetal bovine serum at 37° C., 5% CO2 and 95% humidified air. […] DMSO was used as the vehicle control at a final concentration of 0.1%. Following 1 hr incubation of PC-3 cells with the compounds, the cells were washed 3× with ice-cold 1× Dulbecco's Phosphate-Buffered Saline (DPBS, Mediatech, Herndon, Va.). […] Cell debris was pelleted by centrifugation at 14,000 rpm for 10 min, 4° C. and supernatants (=cell lysates) were transferred to a new tube. Protein concentration was determined by the BCA protein assay kit (Pierce Biotechnology, Rockford, Ill.). […] The released coumarin (AMC) was measured fluorometrically by using λex=390 nm and λem=460 nm. The assay was performed in a microtiter plate (Corning 3904) and followed kinetically with measurements every five minutes for 2 hr. The total amount of protein used for each assay was 20 μg. The final concentration of Suc-LLVY-AMC and DMSO was 20 μM and 0.2%, respectively. Results are presented as the percent inhibition of the 20S proteasome chymotrypsin-like activity relative to the DMSO control.

Data set [4] concerns RAW264.7 cells. Particulars: Tang et al., Infect Immun 67:3055 (1999); read-out: EC50 in the LeTx assay; cited from earlier work.
The target in data set [5] is rabbit muscle 20S proteasome, chymotrypsin-like activity (Oryctolagus cuniculus, UniProt G1T4Q9). Description: Chymotrypsin-like activity of purified rabbit muscle 20S proteasome (suc-LLVY-AMC). The format is biochemical. The protocol: This peptide substrate is specific for the chymotrypsin-like enzyme activity of the proteasome.
Omuralide was prepared as a 10 mM stock in DMSO and stored in 5 μL aliquots at −80° C. […] The assay measures the hydrolysis of Suc-LLVY-AMC into Suc-LLVY and AMC. The released coumarin (AMC) was measured fluorometrically by using λex=390 nm and λem=460 nm. The assays were performed in a microtiter plate (Corning 3904), and followed kinetically with measurements every five minutes. The instrument used was a Thermo Lab Systems Fluoroskan, with the incubation chamber set to 37° C. The assays were performed according to the manufacturer's protocol, with the following changes. The proteasome was activated as described with SDS, and held on ice prior to the assay. […] Ten microliters of each dose were added in triplicate to the assay plate, and 190 μL of the activated proteasome was added and mixed. The samples were pre-incubated in the Fluoroskan for 5 minutes at 37° C. Substrate was added and the kinetics of AMC were followed for one hour.

The subject of another data set is NF-κB. In words: NF-κB-mediated luciferase reporter gene assay, HEK293 NF-κB/Luc cells, TNF-α stimulation. It is filed as cell-based. Particulars: Homo sapiens, HEK293, 1 hr pretreatment, 6 hours TNF-α; read-out: EC50, NF-κB-mediated luciferase activity. The procedure: The HEK293 NF-κB/luciferase reporter cell line is a derivative of the human embryonic kidney cell line (ATCC; CRL-1573) and carries a luciferase reporter gene under the regulation of 5× NF-κB binding sites. […] When performing the luciferase assay, the DMEM basal medium was replaced with phenol-red free DMEM basal medium and the G418 was omitted.
For NF-κB-mediated luciferase assays, HEK293 NF-κB/luciferase cells were seeded at 1.5×10^4 cells/well in 90 μl phenol-red free DMEM complete medium into Corning 3917 white opaque-bottom tissue culture plates. For Formulae II-2, II-4, II-5A and II-18, a 400 μM starting dilution was made in 100% DMSO and this dilution was used to generate an 8-point half log dilution series. […] For formula II-20, a 2.5 mM or 8 mM starting dilution was made in 100% DMSO and the final test concentrations ranged from 6.3 μM to 2.0 nM or 20 μM to 6.3 nM respectively. The plates were returned to the incubator for 1 hour. After 1 hr pretreatment, 10 μl of a 50 ng/ml TNF-α solution, prepared in the phenol-red free DMEM medium was added, and the plates were incubated for an additional 6 hours.
At the end of the TNF-α stimulation, 100 μl of Steady Lite HTS luciferase reagent (Packard Bioscience) was added to each well and the plates were left undisturbed for 10 min at room temperature before measuring the luciferase activity. The relative luciferase units (RLU) were measured by using a Fusion microplate fluorometer (Packard Bioscience).
NF-κB inducible luciferase activity was measured at 6 hours.
On the technique in general: In a reporter assay the amount or activity of a reporter protein is the signal.

In another data set the test system is NCI-H292. In words: Cell growth inhibition assay (resazurin, 48 h). The format is cell-based, human. Particulars: Homo sapiens, NCI-H292, 48 h.
Another data set has as its system MES-SA/Dx5. In words: Cell growth inhibition assay (resazurin, 48 h). Particulars: for EC50: MES-SA/Dx5, 48 h. The protocol: as §1
The multidrug resistant MES-SA/Dx5 tumor cell line was derived from the human uterine sarcoma MES-SA tumor cell line and expresses elevated P-Glycoprotein (P-gp), an ATP dependent efflux pump.

The next data set has as its system U266. Description: Cell growth inhibition assay (resazurin, 48 h). It is filed as cell-based. Particulars: Homo sapiens, U-266, 48 h, U266, 48 h; read-out: EC50.
The next data set concerns RPMI 8226. In words: Cell growth inhibition assay (resazurin, 48 h). Particulars: RPMI 8226. The procedure:
RPMI 8226 (CCL-155), HT-29 (HTB-38), and B16-F10 (CRL-6475) cells were purchased from ATCC. RPMI 8226 cells were maintained in RPMI 1640 media supplemented with 10% (v/v) FBS, 2 mM L-glutamine, 1 mM sodium pyruvate and Penicillin/Streptomycin at 100 IU/ml and 100 μg/ml, respectively. HT-29 cells were maintained in McCoys 5A supplemented with 10% (v/v) FBS, 2 mM L-glutamine, 1 mM sodium pyruvate, 1% (v/v) non-essential amino acids, 10 mM HEPES and Penicillin/Streptomycin at 100 IU/ml and 100 μg/ml, respectively. B16-F10 cells were maintained in DMEM supplemented with 10% (v/v) FBS, 2 mM L-glutamine, 10 mM HEPES and Penicillin/Streptomycin at 100 IU/ml and 100 μg/ml, respectively.
RPMI 8226 cells were seeded at 2×10^4 cells/well in 90 μl RPMI media containing 10% (v/v) FBS or 1% (v/v) FBS into 96 well black-walled, clear-bottom tissue culture plates. […] Formulae II-16, II-17 and Formula II-18 were serially diluted in media containing 1% or 10% FBS and added in triplicate to the test wells. […] The final concentration of Formula II-18 ranged from 2 μM to 630 pM.

The nature of a further data set: Stability in solution. The format is physicochemical. From the text:
Compound VI-1B: UV (Acetonitrile/H2O) λmax 235 (sh) nm; ESMS, m/z 585.2 (M+H)^+.

The test system of the next data set is PC-3. In words: Cell growth inhibition assay (resazurin, 48 h). Particulars: Homo sapiens, PC-3, 48 h.

Each structure is given as a SMILES string. Several values for one entry are separate records, joined by “and”; a condition that tells them apart may be missing. Identical values can stand only once. Like-named read-outs stand apart in the source and are kept apart here. Peptide text beside a SMILES is read from it. * marks the point of attachment. Cbz = O=C(OCc1ccccc1)*

rabbit muscle 20S proteasome, trypsin-like activity, sequence (G1SWK8 1-271): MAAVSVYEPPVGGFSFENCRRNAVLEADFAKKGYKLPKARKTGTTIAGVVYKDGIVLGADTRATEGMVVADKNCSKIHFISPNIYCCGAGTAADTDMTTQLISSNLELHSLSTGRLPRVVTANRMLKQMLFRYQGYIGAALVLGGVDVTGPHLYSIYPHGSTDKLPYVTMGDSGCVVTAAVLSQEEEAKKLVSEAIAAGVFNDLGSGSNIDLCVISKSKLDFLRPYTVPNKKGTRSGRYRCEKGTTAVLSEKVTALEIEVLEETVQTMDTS
rabbit muscle 20S proteasome, chymotrypsin-like activity, sequence (G1T4Q9 1-263): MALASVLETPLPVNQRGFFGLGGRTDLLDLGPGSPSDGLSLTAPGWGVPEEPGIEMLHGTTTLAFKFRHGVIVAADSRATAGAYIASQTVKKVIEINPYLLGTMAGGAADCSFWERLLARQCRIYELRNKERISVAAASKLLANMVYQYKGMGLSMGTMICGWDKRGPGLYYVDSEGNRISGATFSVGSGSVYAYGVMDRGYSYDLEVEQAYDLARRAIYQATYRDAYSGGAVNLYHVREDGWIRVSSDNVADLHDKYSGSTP

Compound `C[C@@]12OC(=O)[C@]1([C@@H](O)[C@H]1CCC[C@H]3O[C@@H]13)NC(=O)[C@@H]2CCCl` (single isomer, unassigned) [Formula II-5A] showed an EC50 in [1] of 87 nM.
On to `O=C1c2c(O)ccc(O)c2C(=O)c2c(NCCNCCO)ccc(NCCNCCO)c21` [Mitoxantrone], for which the EC50 was 827 nM and 1340 nM and 1170 nM with HL-60/MX2; 1410 nM in the data set on HL-60/MX2 (Homo sapiens, HL60/MX2, 48 h).
In the case of `CC(C)[C@H](O)[C@@]12NC(=O)[C@H](C)[C@@H]1OC2=O` [Omuralide, reference compound], the viability at 1 µM in the data set with RAW264.7 cells [2] is 37%. Also, the “% inhibition of the chymotrypsin-like activity of 20S proteasomes in PC-3 cell lysates” value in [3] (100 nM) was found to be 36%.
As to `CC(=O)N[C@@H](CSC(=O)[C@]1([C@@H](O)C(C)C)NC(=O)[C@H](C)[C@@H]1O)C(=O)O` [Lactacystin], in the data set on RAW264.7 cells [4], the EC50 was 3000 nM.
Regarding `C[C@@]12OC(=O)[C@]1(C(=O)C1=CC(O)CCC1)NC(=O)[C@]2(C)CCCl` (some centres unmarked) [Formula II-31], the EC50 in [5] was > 20000 nM.
With `C[C@@]12OC(=O)[C@]1([C@@H](O)[C@H]1CCC[C@H](Cl)[C@H]1O)NC(=O)[C@@H]2CCCl` [Formula IV-3C], the EC50 in the data set on NF-κB is > 20000 nM.
Turning to `CC[C@H]1C(=O)N[C@@]2([C@@H](O)[C@@H]3C=CCCC3)C(=O)O[C@@]12C` [Formula II-17], the “% inhibition of the chymotrypsin-like activity of 20S proteasomes in PC-3 cell lysates” value in [3] (100 nM) turned out to be 26%. In addition, the inhibition at 0.01 µM in data set [3] (PC-3, read-out: % inhibition of the chymotrypsin-like activity of 20S proteasomes in PC-3 cell lysates, 10 nM) was 16%. Moreover, in data set [3] (PC-3, read-out: % inhibition of the chymotrypsin-like activity of 20S proteasomes in PC-3 cell lysates, 100 nM), the inhibition at 0.1 µM came out at 26%. Moreover, the inhibition at 1 µM in data set [3] (PC-3, read-out: % inhibition of the chymotrypsin-like activity of 20S proteasomes in PC-3 cell lysates, 1,000 nM) came to 49%. In addition, in data set [3] (PC-3, read-out: % inhibition of the chymotrypsin-like activity of 20S proteasomes in PC-3 cell lysates, 10,000 nM), the inhibition at 10 µM was determined as 79%.
As to `C[C@@]12OC(=O)[C@]1([C@@H](O)[C@H]1CCC[C@@H]3O[C@H]13)NC(=O)[C@@H]2CCCl` [Formula II-5B], in data set [1], the EC50 was 762 nM and 716 nM.
On to `C[C@@]12OC(=O)[C@]1([C@@H](O)C1CCCCC1)NC(=O)[C@@H]2CCCl` [Formula II-2], for which the EC50 with NCI-H292 stood at 395 nM; in the data set on NCI-H292 (read-out: EC50), 322 nM; with MES-SA/Dx5 (Homo sapiens) it was 220 nM; in the data set with MES-SA/Dx5 it was 138 nM; with HL-60/MX2 (Homo sapiens, HL60/MX2, 48 h) it was 142 nM.
Regarding `C[C@@]12OC(=O)[C@]1([C@@H](O)C1CCCCC1)NC(=O)[C@@H]2CCBr` [Formula II-4], the EC50 in the data set with U266 worked out at 39 nM; with NCI-H292, 213 nM; in the data set on NCI-H292 (read-out: EC50), 192 nM; in the data set on MES-SA/Dx5 (Homo sapiens), 178 nM; in the data set with MES-SA/Dx5 it was 93 nM.
For the compound `C[C@@]12OC(=O)[C@]1([C@@H](O)[C@@H]1C=CCCC1)NC(=O)[C@@H]2CCBr` [Formula II-18], in the data set on RPMI 8226, the “% cytotoxicity” value is 94, 94%.
For the compound `C[C@]1(O)[C@@H](CCCl)C(=O)N[C@]1(C(=O)SCC(NC(=O)CCC(N)C(=O)O)C(=O)NCC(=O)O)[C@@H](O)[C@@H]1C=CCCC1` (some centres unmarked) [Formula II-48], in the data set “Stability in solution”, the stability in solution result is reported as “unstable in solution”.
On to `CC(=O)O[C@H]1C(=O)[C@@]2(C)[C@H]([C@H](OC(=O)c3ccccc3)[C@]3(O)C[C@H](OC(=O)[C@H](O)[C@@H](NC(=O)c4ccccc4)c4ccccc4)C(C)=C1C3(C)C)[C@]1(OC(C)=O)CO[C@@H]1C[C@@H]2O` [Paclitaxel, reference compound], for which the “% cytotoxicity” value with MES-SA/Dx5 is recorded as 78 ± 1%.
`CC[C@H]1C(=O)N[C@@]2([C@@H](O)C3CCCCC3)C(=O)O[C@@]12C` [Formula II-3]: the EC50 with U266, in the data set with PC-3, in the data set with NF-κB and with MES-SA/Dx5 (Homo sapiens) was > 20000 nM each time.
Regarding `CC(C)C[C@@H](C=O)NC(=O)[C@H](CC(C)C)NC(=O)[C@H](CC(C)C)NC(=O)OCc1ccccc1` [MG132] (Cbz-Leu-Leu-Leu-aldehyde), the EC50 in the data set on RAW264.7 cells [4] was 3000 nM.

What is called EC50 is the concentration giving half of the maximal effect. Broadly, the viability is a per cent measure of how many cells are alive, often set against a control. As usually defined, the inhibition is the drop in the measured response relative to a control, in per cent.
